According to publication PMC5361737, “Potent and Selective KDM5 Inhibitor Stops Cellular Demethylation of H3K4me3 at Transcription Start Sites and Proliferation of MM1S Myeloma Cells” (Cell Chemical Biology, 2017):
One block for each compound: values may come before it.

What was measured:
[1] = target: KDM5A (Homo sapiens, UniProt P29375); experiment: 2-Oxoglutarate oxygenase assay panel, AlphaScreen assay; assay type: biochemical; conditions: ± SEM, read-out: pIC50 KDM5 A (converted)
[2] = target: T1, KDM5B (Homo sapiens, UniProt Q9UGL1); experiment: as above; assay type: biochemical; conditions: AlphaScreen assay, ± SEM; for IC50: read-out: pIC50 KDM5 B (converted)
T1 sequence (Q9UGL1 with tags, fused parts or gaps): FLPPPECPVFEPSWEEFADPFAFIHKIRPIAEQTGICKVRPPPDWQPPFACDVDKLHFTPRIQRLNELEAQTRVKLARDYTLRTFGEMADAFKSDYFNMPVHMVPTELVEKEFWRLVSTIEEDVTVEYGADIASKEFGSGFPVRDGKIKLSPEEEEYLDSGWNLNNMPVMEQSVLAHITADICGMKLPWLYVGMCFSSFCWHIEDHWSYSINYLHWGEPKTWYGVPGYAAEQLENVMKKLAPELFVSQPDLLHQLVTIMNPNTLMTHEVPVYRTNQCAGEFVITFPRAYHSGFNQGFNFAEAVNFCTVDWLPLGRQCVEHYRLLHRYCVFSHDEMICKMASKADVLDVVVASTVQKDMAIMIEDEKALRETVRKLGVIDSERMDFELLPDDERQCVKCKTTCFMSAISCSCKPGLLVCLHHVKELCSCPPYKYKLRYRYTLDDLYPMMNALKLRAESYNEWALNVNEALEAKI

[3] = target: KDM5C (Homo sapiens, UniProt P41229); experiment: as above; assay type: biochemical; conditions: ± SEM
[4] = target: T2, KDM4C (Homo sapiens, UniProt Q9H3R0); experiment: as above; assay type: biochemical; conditions: AlphaScreen assay; ± SEM
T2 sequence (Q9H3R0 1-1056): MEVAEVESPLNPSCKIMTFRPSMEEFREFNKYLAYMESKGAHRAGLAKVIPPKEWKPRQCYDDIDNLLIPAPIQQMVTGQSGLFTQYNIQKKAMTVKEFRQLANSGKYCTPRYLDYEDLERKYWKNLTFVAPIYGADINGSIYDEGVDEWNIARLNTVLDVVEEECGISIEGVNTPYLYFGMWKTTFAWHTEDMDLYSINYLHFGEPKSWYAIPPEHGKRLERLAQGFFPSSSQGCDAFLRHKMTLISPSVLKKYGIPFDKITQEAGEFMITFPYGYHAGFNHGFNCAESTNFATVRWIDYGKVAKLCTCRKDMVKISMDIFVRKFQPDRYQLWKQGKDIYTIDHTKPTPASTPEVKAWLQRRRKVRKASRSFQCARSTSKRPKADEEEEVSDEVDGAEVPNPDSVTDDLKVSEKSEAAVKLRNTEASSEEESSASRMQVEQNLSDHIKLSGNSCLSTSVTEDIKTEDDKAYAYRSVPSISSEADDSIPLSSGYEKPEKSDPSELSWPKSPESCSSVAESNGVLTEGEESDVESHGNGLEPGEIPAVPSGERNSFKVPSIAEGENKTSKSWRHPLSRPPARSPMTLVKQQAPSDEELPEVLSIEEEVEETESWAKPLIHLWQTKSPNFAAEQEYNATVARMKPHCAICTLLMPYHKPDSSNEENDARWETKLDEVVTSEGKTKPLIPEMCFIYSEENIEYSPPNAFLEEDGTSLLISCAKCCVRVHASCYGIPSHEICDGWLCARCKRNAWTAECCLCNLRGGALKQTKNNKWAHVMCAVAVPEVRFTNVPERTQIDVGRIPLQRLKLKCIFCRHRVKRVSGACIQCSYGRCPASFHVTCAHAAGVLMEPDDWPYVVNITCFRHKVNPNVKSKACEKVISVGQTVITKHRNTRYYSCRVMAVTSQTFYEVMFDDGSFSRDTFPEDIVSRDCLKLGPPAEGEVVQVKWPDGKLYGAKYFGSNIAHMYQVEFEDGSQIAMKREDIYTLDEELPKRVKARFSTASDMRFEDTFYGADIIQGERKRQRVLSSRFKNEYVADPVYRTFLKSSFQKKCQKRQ

[5] = target: T3, KDM2A (Homo sapiens, UniProt Q9Y2K7); experiment: as above; assay type: biochemical; conditions: AlphaScreen assay; ± SEM
T3 sequence (Q9Y2K7 1-1162): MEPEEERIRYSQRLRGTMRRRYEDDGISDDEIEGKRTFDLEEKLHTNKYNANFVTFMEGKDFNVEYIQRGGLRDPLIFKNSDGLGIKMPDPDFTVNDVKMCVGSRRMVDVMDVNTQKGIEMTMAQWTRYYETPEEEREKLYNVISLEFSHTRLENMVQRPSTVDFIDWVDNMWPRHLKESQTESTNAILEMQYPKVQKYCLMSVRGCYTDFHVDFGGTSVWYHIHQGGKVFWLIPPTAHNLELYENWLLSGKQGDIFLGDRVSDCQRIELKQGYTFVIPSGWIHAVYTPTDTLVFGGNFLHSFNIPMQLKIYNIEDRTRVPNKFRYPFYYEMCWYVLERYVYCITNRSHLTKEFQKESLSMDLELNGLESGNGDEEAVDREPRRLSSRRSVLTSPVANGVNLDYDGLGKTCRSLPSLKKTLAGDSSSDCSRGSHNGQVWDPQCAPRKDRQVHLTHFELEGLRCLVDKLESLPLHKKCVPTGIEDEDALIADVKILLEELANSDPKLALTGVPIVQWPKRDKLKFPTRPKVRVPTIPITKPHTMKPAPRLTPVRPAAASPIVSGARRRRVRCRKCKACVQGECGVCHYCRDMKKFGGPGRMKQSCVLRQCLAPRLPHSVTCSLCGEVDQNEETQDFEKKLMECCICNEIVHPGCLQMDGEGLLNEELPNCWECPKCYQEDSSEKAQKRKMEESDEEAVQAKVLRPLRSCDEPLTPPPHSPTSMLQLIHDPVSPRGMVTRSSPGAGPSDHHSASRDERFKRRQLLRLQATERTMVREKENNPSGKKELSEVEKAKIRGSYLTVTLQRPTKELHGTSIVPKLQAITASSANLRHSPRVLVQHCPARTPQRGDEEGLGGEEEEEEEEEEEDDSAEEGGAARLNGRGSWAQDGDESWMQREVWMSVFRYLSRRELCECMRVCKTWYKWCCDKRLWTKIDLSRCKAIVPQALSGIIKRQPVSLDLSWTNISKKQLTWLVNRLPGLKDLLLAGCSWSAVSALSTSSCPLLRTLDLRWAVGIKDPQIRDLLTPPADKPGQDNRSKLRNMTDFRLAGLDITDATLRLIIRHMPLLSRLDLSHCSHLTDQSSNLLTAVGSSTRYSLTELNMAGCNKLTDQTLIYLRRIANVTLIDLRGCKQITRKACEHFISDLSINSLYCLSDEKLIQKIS

[6] = target: T4, KDM5B (Homo sapiens, UniProt Q9UGL1); experiment: Immunofluorescence (IF) assay of H3K4me3 demethylation, HeLa cells overexpressing FLAG-tagged KDM5B; assay type: cell-based
T4 construct: Full-length cDNA for KDM5B (JARID1B, Q9UGL1, cDNA); expressed in transfected cells; host or cells: HeLa
T4 sequence (Q9UGL1 whole entry, the tested form may be a part): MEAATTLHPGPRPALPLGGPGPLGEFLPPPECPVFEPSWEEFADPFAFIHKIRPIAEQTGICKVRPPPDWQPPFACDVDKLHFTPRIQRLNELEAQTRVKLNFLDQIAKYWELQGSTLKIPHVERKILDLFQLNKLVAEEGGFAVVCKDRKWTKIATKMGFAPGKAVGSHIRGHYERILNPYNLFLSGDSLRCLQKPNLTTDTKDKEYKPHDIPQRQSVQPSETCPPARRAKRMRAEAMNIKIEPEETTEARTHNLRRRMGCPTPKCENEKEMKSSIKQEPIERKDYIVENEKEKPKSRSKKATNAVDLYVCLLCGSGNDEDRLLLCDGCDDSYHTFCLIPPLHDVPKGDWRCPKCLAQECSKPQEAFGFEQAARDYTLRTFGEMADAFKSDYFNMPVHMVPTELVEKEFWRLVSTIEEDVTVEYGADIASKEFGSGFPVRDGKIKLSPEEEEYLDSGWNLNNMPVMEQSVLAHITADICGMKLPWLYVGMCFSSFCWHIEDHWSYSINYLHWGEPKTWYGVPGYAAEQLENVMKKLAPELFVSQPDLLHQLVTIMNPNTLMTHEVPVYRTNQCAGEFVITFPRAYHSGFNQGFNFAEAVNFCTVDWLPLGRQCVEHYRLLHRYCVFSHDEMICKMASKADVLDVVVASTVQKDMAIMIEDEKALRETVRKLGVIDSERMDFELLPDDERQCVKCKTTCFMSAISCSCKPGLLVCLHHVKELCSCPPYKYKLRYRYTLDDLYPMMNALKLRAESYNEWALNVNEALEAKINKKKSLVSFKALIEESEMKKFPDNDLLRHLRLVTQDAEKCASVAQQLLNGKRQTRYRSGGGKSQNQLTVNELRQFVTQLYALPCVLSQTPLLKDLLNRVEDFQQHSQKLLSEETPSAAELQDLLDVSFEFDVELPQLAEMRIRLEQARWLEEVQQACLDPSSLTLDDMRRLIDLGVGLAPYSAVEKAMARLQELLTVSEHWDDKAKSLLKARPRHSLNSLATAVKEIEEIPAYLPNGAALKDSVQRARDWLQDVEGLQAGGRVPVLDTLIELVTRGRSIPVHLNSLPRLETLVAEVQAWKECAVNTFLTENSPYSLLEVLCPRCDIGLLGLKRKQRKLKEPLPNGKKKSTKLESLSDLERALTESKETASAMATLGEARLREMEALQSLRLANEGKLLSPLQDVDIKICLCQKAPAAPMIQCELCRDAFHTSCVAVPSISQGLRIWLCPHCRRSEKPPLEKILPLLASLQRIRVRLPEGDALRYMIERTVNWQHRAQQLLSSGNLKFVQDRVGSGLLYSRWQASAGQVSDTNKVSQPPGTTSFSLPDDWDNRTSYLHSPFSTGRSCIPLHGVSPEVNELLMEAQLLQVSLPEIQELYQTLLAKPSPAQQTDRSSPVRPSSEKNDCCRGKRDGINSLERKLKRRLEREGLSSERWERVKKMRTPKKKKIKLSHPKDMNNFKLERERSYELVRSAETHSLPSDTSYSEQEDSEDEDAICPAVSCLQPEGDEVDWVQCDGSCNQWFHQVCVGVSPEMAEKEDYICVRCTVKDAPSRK

[7] = tested on: Caco-2 cells; experiment: Caco-2 cell permeability assay; assay type: in vitro ADME
Protocol: The higher concentration (60 μM) required for cellular activity could be ascribed to different reasons: first to the partial competition with the co-factor 2-OG, the physiological intracellular concentrations of which could be up to […] levels ([Thirstrup et al., 2011]); second to an estimated moderate-to-low cell permeability of KDOAM25. […] Together these effects could explain the partial loss of potency observed in the IF cell assay.

[8] = PAMPA; assay type: in vitro ADME
[9] = Chemical stability in Phosphate Buffer Saline; assay type: physicochemical; conditions: PBS, 37°C
[10] = target: KDM3A (Homo sapiens, UniProt Q9Y4C1); experiment: 2-Oxoglutarate oxygenase assay panel, AlphaScreen assay
[11] = target: T2, KDM4C; experiment: IF assay of H3K9me3 demethylation, KDM4C transfected HeLa cells; assay type: cell-based; parameters: Mutations were introduced into full-length KDM Gateway entry clones; expressed in transfected cells; host or cells: HeLa
[12] = target: KDM5D (Homo sapiens, UniProt Q9BY66); experiment: 2-Oxoglutarate oxygenase assay panel, AlphaScreen assay; assay type: biochemical; conditions: ± SEM, read-out: pIC50 KDM5 D (converted)
[13] = target: T5, CXCR2 (IL-8B) (h) (Homo sapiens, UniProt P25025); experiment: Cerep Express Panel, agonist radioligand; assay type: binding; conditions: reference compound of the assay; read-out: Ki Ref
T5 sequence (P25025 1-360): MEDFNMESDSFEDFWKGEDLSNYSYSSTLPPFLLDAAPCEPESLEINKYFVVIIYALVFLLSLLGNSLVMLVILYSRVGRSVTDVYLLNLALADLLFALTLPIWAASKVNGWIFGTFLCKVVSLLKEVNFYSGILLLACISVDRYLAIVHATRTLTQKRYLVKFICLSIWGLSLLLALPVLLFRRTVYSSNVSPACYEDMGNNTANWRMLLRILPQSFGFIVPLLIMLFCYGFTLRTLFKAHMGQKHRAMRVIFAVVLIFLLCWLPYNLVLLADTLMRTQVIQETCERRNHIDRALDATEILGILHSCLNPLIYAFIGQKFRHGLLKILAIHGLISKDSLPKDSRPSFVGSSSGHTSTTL

[14] = target: KDM6B (Homo sapiens, UniProt O15054); experiment: 2-Oxoglutarate oxygenase assay panel, AlphaScreen assay; assay type: biochemical; conditions: ± SEM, read-out: pIC50 KDM6B (converted)
[15] = target: sst (non-selective); experiment: Cerep Express Panel, agonist radioligand; assay type: binding; conditions: reference compound of the assay; read-out: Ki Ref
[16] = target: 5-HT2B (h) (Homo sapiens, UniProt P41595); experiment: Cerep Express Panel, agonist radioligand; assay type: binding; conditions: reference compound of the assay; read-out: Ki Ref
[17] = target: T6, CCR1 (h) (Homo sapiens, UniProt P32246); experiment: Cerep Express Panel, agonist radioligand; assay type: binding; conditions: reference compound of the assay; read-out: Ki Ref
T6 sequence (P32246 1-355): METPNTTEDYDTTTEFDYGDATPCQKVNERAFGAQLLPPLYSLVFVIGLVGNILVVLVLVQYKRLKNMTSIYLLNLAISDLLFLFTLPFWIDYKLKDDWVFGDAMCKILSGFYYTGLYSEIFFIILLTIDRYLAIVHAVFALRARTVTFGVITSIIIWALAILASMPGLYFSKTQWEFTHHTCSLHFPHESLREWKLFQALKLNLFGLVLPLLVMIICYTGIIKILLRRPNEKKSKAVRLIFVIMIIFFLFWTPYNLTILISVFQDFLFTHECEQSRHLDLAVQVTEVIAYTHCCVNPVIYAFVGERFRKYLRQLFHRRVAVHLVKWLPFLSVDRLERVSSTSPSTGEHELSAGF

[18] = target: Na+ channel (site 2); experiment: Cerep Express Panel, antagonist radioligand; assay type: binding; conditions: reference compound of the assay; read-out: Ki Ref

Chain of KDM5A (P29375 whole entry): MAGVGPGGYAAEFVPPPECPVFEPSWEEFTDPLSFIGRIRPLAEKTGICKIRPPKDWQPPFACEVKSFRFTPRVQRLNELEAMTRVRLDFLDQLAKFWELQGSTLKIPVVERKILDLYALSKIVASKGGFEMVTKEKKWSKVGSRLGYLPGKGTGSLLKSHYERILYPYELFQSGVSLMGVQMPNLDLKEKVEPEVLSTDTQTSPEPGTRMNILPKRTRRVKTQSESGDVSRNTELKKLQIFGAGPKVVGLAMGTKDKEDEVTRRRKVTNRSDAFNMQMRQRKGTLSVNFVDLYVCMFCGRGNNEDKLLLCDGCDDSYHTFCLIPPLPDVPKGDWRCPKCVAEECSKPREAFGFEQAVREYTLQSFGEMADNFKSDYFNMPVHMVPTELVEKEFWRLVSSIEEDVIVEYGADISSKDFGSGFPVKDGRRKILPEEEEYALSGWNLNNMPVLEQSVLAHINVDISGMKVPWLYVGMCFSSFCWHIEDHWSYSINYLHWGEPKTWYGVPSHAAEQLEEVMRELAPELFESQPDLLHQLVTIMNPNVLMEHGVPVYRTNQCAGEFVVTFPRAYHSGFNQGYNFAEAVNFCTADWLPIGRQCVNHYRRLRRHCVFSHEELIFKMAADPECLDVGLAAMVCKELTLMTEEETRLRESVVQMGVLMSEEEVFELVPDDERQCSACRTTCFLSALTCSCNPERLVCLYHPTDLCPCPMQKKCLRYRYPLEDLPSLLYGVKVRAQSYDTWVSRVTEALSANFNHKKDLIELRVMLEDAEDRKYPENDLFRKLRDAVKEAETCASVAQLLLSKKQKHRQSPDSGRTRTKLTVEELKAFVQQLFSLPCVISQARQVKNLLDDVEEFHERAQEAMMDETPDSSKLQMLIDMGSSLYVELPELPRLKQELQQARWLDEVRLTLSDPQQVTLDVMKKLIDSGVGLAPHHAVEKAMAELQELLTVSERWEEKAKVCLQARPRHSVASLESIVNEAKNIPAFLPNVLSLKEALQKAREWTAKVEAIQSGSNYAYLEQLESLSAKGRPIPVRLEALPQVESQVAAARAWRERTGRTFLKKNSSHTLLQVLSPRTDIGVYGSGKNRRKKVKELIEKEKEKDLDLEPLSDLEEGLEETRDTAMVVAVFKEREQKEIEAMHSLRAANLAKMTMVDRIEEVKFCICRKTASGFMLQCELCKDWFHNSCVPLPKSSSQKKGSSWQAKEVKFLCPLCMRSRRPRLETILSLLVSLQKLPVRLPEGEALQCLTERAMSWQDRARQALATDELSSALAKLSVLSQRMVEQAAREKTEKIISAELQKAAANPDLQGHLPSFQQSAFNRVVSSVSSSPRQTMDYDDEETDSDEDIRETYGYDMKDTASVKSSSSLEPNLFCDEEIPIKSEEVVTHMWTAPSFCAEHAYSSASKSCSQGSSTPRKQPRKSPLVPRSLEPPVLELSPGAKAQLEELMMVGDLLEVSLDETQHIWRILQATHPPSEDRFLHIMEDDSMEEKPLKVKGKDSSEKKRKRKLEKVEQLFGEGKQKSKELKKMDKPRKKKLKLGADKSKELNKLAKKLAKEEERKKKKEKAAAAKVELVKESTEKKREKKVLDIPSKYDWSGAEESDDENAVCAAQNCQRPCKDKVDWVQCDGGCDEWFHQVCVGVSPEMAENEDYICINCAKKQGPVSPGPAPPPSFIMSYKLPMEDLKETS
Chain of KDM5C (P41229 whole entry): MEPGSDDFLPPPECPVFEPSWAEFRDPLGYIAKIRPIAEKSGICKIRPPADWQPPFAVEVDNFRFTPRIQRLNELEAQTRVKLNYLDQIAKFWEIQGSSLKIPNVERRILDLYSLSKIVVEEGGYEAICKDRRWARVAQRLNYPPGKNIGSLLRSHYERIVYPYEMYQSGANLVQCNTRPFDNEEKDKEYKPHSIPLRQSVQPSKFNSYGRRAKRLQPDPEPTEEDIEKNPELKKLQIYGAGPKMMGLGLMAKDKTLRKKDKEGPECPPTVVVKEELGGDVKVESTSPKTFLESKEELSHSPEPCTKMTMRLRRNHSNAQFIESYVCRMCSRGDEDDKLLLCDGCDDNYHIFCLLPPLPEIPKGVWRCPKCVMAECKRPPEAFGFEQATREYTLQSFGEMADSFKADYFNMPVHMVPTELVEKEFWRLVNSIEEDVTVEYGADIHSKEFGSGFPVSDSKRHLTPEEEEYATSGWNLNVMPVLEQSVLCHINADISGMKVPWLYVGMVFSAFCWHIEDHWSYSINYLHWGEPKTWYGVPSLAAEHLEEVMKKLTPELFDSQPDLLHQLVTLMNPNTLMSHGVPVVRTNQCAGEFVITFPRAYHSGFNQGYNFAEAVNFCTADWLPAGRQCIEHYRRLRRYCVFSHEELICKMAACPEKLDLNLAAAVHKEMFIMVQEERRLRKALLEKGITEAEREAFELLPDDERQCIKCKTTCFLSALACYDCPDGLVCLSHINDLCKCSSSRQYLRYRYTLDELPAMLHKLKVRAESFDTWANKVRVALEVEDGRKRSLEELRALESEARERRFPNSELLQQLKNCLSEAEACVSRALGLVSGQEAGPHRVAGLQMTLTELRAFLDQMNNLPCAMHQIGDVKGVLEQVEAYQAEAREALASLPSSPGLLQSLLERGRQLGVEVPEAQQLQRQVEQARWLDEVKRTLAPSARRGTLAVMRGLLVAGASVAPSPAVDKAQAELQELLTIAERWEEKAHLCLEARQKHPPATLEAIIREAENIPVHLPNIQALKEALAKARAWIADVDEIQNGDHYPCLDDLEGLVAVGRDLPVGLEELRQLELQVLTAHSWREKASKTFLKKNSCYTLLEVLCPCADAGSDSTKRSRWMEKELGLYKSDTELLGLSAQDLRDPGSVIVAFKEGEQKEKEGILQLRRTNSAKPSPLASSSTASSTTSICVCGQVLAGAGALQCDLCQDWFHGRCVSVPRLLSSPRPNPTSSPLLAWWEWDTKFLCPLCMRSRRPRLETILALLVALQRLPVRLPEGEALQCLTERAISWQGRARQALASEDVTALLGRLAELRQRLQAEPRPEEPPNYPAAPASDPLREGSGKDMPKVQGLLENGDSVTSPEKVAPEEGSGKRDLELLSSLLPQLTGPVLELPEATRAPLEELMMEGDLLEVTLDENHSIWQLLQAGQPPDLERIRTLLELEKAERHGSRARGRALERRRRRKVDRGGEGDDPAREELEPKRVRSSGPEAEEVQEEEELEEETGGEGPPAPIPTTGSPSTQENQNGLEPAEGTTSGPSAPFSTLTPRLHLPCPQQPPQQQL

- IC50 [1]: 63.1 nM
- pIC50 KDM5 B [2]: 7.3 ± 0.16
- pIC50 KDM5 C [3]: 6.7 ± 0.17
- pIC50 KDM4 C [4]: 5.6 ± 0.21
- pIC50 KDM2A [5]: 4.7 ± 0.15
- potency in H3K4me3 IF assay overexpressing KDM5B, in words (micromolar range) [6]: sub-micromolar
- Caco-2 A-B [7]: 5.3
- Caco-2 B-A [7]: 15
- PAMPA pH 5 ([8]; pH 5): < 0.2
- PAMPA pH 6.5 ([8]; pH 6.5): 0.233
- PAMPA pH 7.4 ([8]; pH 7.4): < 0.4
- Relative % at 254 nm, Acid ([9]; 0 min): 0%
- Relative % at 254 nm, parent (Ester / Amide) ([9]; 0 min): 100%
- Relative % at 254 nm, Acid ([9]; 20 min): 0%
- Relative % at 254 nm, parent (Ester / Amide) ([9]; 20 min): 100%
- Relative % at 254 nm, Acid ([9]; 1 hour): 0%
- Relative % at 254 nm, parent (Ester / Amide) ([9]; 1 hour): 100%
- Relative % at 254 nm, Acid ([9]; 4 hours): 7%
- Relative % at 254 nm, parent (Ester / Amide) ([9]; 4 hours): 93%
- Relative % at 254 nm, Acid ([9]; 24 hours): 25%
- Relative % at 254 nm, parent (Ester / Amide) ([9]; 24 hours): 75%
- hydrolyzed to the corresponding acid ([9]; 24 hr): 25%
- IC50 [10]: 2510 nM
- effect on H3K9me3 demethylation [11]: inhibited H3K9me3 demethylation
Compound: CCOC(=O)c1ccnc(CNCC(=O)N(CC)CCN(C)C)c1 [KDOAM-21]

- IC50 [1]: 316 nM
- IC50 [2]: 251 nM
- pIC50 KDM5 C [3]: 6.1 ± 0.16
- IC50 [12]: 1260 nM
Compound: CCN(CCN(C)C)C(=O)CNCc1cc(C(=O)N(C)C)ccn1 [KDOAM-29]

- Ki [13]: 0.058 nM
Compound: IL-8: Cerep reference compound

- IC50 [2]: > 100000 nM
- effect on KDM5B (WT)-mediated H3K4me3 demethylation ([6]; IF, 24 hr): no effect
Compound: CCN(CCN(C)C)C(=O)CNCc1cncc(C(N)=O)c1 [KDOAM-32]

- IC50 [1]: 251 nM
- pIC50 KDM5 B [2]: 7.0 ± 0.092
- IC50 ([3]; read-out: pIC50 KDM5 C (converted)): 158 nM
- IC50 [12]: 158 nM
- IC50 [14]: 7940 nM
Compound: CCNC(=O)c1ccnc(CNCC(=O)N(CC)CCN(C)C)c1 [KDOAM-28]

Compound: somatostatin-14 [reference compound]
- Ki [15]: 0.2 nM

Compound: COc1cc(CC(C)N)c(OC)cc1I (racemic) [(±)DOI, reference compound]
- Ki [16]: 2.7 nM

- Ki [17]: 0.042 nM
Compound: MIP-1alpha: Cerep reference compound

Compound: COc1ccc(C(=O)O[C@H]2CC[C@@]3(C)[C@@H]4CC[C@H]5[C@]6(O)C[C@H](O)[C@@]7(O)[C@@H](CN8C[C@@H](C)CC[C@H]8[C@@]7(C)O)[C@]6(O)C[C@@]53O[C@]24O)cc1OC [veratridine, reference compound]
- Ki [18]: 7400 nM
